Data as given in patent US20080153896A1, “Polymorphic Forms of an HMG-CoA Reductase Inhibitor and Uses Thereof” (priority 2006, published 2008).

Key:
[1] = biological target: T1, 3-hydroxy-3-methylglutaryl-coenzyme A (HMG-CoA) reductase (Homo sapiens, UniProt P04035); experiment: HMG-CoA reductase inhibition, potency compared with atorvastatin; assay type: biochemical; details: vs atorvastatin
T1 sequence (P04035 1-888): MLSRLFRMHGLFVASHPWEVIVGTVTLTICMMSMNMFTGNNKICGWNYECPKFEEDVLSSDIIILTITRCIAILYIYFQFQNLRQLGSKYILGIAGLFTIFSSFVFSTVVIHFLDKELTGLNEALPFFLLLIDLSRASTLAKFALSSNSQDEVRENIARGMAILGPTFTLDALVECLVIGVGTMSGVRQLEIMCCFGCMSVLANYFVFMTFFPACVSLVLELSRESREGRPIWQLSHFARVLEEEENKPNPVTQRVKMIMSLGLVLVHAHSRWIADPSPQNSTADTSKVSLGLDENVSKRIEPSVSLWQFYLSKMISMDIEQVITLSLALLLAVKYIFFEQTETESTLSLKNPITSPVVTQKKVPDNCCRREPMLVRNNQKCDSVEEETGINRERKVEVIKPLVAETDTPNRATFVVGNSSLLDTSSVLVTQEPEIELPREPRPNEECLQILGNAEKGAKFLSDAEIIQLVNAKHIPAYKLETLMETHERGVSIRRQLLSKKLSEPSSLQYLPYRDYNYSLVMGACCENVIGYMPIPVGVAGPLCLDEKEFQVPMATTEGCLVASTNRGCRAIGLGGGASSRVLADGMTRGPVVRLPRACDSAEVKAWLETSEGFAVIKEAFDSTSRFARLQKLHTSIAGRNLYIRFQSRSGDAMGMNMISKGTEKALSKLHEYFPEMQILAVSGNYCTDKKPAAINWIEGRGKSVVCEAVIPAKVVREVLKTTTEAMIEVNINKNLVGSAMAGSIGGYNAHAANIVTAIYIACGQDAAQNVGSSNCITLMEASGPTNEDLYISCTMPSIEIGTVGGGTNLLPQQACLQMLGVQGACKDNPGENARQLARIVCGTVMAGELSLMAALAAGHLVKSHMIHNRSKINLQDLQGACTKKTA

[2] = system: cholesterol synthesis; experiment: Inhibition of cholesterol synthesis in an in vivo rat model; details: vs atorvastatin
[3] = system: rat primary hepatocytes; experiment: Inhibition of cholesterol synthesis in rat primary hepatocytes; assay type: cell-based; details: vs atorvastatin
[4] = biological target: CYP3A4 (cytochrome P450 3A4) (Homo sapiens, UniProt P08684); experiment: Substrate for metabolic enzyme CYP3A4
[5] = Intrinsic clearance in human liver microsomes; details: vs atorvastatin
[6] = system: NRK-49F (Fibroblast) and L6 (Myoblast); experiment: Inhibition of cholesterol synthesis in extra hepatic cells/cell lines

Sequence of CYP3A4 (cytochrome P450 3A4) (P08684 whole entry): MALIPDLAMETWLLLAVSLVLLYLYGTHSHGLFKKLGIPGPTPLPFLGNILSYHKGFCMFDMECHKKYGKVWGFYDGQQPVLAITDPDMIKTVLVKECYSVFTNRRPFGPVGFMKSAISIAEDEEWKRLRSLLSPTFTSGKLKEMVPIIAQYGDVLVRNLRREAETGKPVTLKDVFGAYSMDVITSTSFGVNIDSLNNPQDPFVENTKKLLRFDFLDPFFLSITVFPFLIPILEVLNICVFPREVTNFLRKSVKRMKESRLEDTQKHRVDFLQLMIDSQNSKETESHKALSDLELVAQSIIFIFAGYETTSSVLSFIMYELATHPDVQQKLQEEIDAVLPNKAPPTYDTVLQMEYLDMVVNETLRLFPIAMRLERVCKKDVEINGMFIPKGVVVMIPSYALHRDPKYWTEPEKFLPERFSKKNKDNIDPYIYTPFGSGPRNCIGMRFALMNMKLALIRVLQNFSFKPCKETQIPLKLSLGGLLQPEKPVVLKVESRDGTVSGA

(3R,5R)-7-[2-(4-fluorophenyl)-5-isopropyl-3-phenyl-4-[(4-hydroxymethylphenylamino)carbonyl]-pyrrol-1-yl]-3,5-dihydroxy-heptanoic acid hemi calcium salt [compound of Formula I]
potency relative to atorvastatin [1]: equipotent to atorvastatin
potency in inhibiting cholesterol synthesis [2]: more potent than atorvastatin
potency in the inhibition of cholesterol synthesis [3]: greater potency
substrate for the metabolic enzyme CYP3A4 [4]: not a major substrate
intrinsic clearance [5]: significantly less than atorvastatin
selectivity, inhibition of cholesterol synthesis in rat primary hepatocytes over extra hepatic cells/cell lines ([6]; NRK-49F and L6, vs atorvastatin): greater
hepatoselectivity ([6]; vs atorvastatin): better hepatoselectivity
